According to patent publication US4551445A, “Derivatives of arginine vasopressin antagonists” (The Medical College of Ohio, priority 1983, dated 1985):
Starred links: 1 amine or outer side, 2 acyl side, 3 side chain; linkers in the order of their positions; H or OH if unused. Positions of bridges follow the written chain, without caps; N, C: chain ends. Non-standard residues stand in square brackets, D forms with d. Residues, ends and D or L forms follow the SMILES beside them. X1 = O=C(CC1(S[*:2])CCCCC1)[*:1]; Nle = CCCC[C@H](N)C(=O)O

Assays:
[1] = test system: antidiuretic response to arginine vasopressin (ADH); experiment: Anti-antidiuretic: antagonism of the antidiuretic response to subsequent injections of vasopressin; format: in vivo, rats
Method: Activity as antidiuretic agonists was determined by intravenous injection of the compounds being evaluated in ethanol-anesthesized water-loaded rats in accordance with Sawyer, Endocrinology, vol. 63 (1958) at 694. Antagonism of the response to subsequent injections of vasopressin was tested as described by Sawyer et al., Science, vol. 212 (1981) at 49.
(§1) Antagonistic potencies were determined and expressed as "effective doses" and pA2 values. The "effective dose" is defined as the dose (in nanomoles per kilogram) that reduces the response seen from 2x units of agonist injected 20 min after the dose of antagonist to the response with 1x units of agonist. Estimated in vivo "pA2 " values represent the negative logarithms of the effective doses, divided by the estimated volume of distribution (67 ml/kg).

[2] = test system: vasopressor response to arginine vasopressin; experiment: Antivasopressor: antagonism to the vasopressor response (Dyckes et al.); format: in vivo; details: for Antivasopressor pA2: Table 1, estimated in vivo pA2; for Antagonistic Activities Antivasopressor pA2: table
Method: Antagonism to the vasopressor response was estimated in accordance with Dyckes et al., J. Med. Chem., vol. 17 (1974) at 969. The values are expressed as pA2 values, defined as in Schild et al., Br. J. Pharmacol., vol. 2 (1947) at 189.
as §1

[3] = Table 1, estimated in vivo pA2, volume of distribution 67 ml/kg
[4] = Table 2, estimated in vivo pA2, volume of distribution 67 ml/kg

Compound	Anti-Antidiuretic pA2 [1, 3]	Antivasopressor pA2 [2]	Anti-Antidiuretic pA2 [1, 4]	other results
CCOc1ccc(C[C@H]2NC(=O)CC3(CCCCC3)SSC[C@@H](C(=O)N3CCC[C@H]3C(=O)N[C@@H](CCCNC(=N)N)C(=O)NCC(N)=O)NC(=O)[C@H](CC(N)=O)NC(=O)[C@H](C(C)C)NC(=O)[C@H](Cc3ccccc3)NC2=O)cc1 [d(CH2)5 --D-Tyr(Et)VAVP] ([dY](Et)FVNCPRG-NH2; linker N-5 via X1)	7.81 ± 0.07	8.22 ± 0.12		
[1-(β-mercapto-β,β-cyclopentamethylenepropionic acid), 2-D-phenylalanine, 4-aminobutyric acid]-arginine vasopressin [d(CH 2)5 D-Phe^2 Abu^4 AVP]			7.96	Anti-Antidiuretic ED ([1]; Table 2, effective dose): 0.77 ± 0.12 nmol/kg; Antivasopressor Potency ED ([2]; Table 2, effective dose): 1.4 ± 0.3 nmol/kg; AD/VP ([2]; Table 2, ratio, values fit antivasopressor ED / anti-antidiuretic ED): 1.8
CCOc1ccc(C[C@@H]2NC(=O)CC3(CCCCC3)SSC[C@@H](C(=O)N3CCC[C@H]3C(=O)N[C@H](CCCNC(=N)N)C(=O)NCC(N)=O)NC(=O)[C@H](CC(N)=O)NC(=O)[C@H](C(C)C)NC(=O)[C@H](Cc3ccccc3)NC2=O)cc1 [d(CH2)5 Tyr(Et)VDAVP] (Y(Et)FVNCP[dR]G-NH2; linker N-5 via X1)	7.10 ± 0.08	8.31 ± 0.05		
COc1ccc(C[C@@H]2NC(=O)CC3(CCCCC3)SSC[C@@H](C(=O)N3CCC[C@H]3C(=O)N[C@H](CCCNC(=N)N)C(=O)NCC(N)=O)NC(=O)[C@H](CC(N)=O)NC(=O)[C@H](C(C)C)NC(=O)[C@H](Cc3ccccc3)NC2=O)cc1 [d(CH2)5 Tyr(Me)VDAVP, [1-(β-mercapto-β,β-cyclopentamethylenepropionic acid), 2-O-methyltyrosine, 4-valine, 8-D-arginine]vasopressin] (Y(Me)FVNCP[dR]G-NH2; linker N-5 via X1)	6.68 ± 0.11	8.44 ± 0.07		
CCOc1ccc(C[C@H]2NC(=O)CC3(CCCCC3)SSC[C@@H](C(=O)N3CCC[C@@H]3C(=O)N[C@@H](CCCNC(=N)N)C(=O)NCC(N)=O)NC(=O)[C@H](CC(N)=O)NC(=O)[C@H](C(C)C)NC(=O)[C@H](Cc3ccccc3)NC2=O)cc1 [d(CH2)5 D-Tyr(Et)^2 D-Pro^7 VAVP] ([dY](Et)FVNC[dP]RG-NH2; linker N-5 via X1)	7.64 ± 0.08	8.10 ± 0.06		
COc1ccc(C[C@H]2NC(=O)CC3(CCCCC3)SSC[C@@H](C(=O)N3CCC[C@H]3C(=O)N[C@@H](CCCNC(=N)N)C(=O)NCC(N)=O)NC(=O)[C@H](CC(N)=O)NC(=O)[C@H](CCC(N)=O)NC(=O)[C@H](Cc3ccccc3)NC2=O)cc1 [d(CH2)5 [D-Tyr(Me)^2]AVP, [1-(β-mercapto-β,β-cyclopentamethylenepropionic acid), 2-D-(O-methyl)tyrosine]-arginine vasopressin] ([dY](Me)FQNCPRG-NH2; linker N-5 via X1)	6.98 ± 0.08	8.27 ± 0.02		
CCOc1ccc(C[C@@H]2NC(=O)CC3(CCCCC3)SSC[C@@H](C(=O)N3CCC[C@H]3C(=O)N[C@@H](CCCNC(=N)N)C(=O)NCC(N)=O)NC(=O)[C@H](CC(N)=O)NC(=O)[C@H](CCC(N)=O)NC(=O)[C@H](Cc3ccccc3)NC2=O)cc1 [d(CH2)5 Tyr(Et)AVP, reference compound] (Y(Et)FQNCPRG-NH2; linker N-5 via X1)				Antagonistic Activities Antivasopressor pA2 [2]: 8.47 ± 0.04
N=C(N)NCCC[C@H](NC(=O)[C@@H]1CCCN1C(=O)[C@@H]1CSSC2(CCCCC2)CC(=O)N[C@H](Cc2ccccc2)C(=O)N[C@@H](Cc2ccccc2)C(=O)N[C@@H](CCCCN)C(=O)N[C@@H](CC(N)=O)C(=O)N1)C(=O)NCC(N)=O [d(CH2)5 D-Phe^2 Lys^4 AVP, [1-(β-mercapto-β,β-cyclopentamethylenepropionic acid), 2-D-phenylalanine, 4-lysine]-arginine vasopressin] ([dF]FKNCPRG-NH2; linker N-5 via X1)			7.22	
N=C(N)NCCC[C@H](NC(=O)[C@@H]1CCCN1C(=O)[C@@H]1CSSC2(CCCCC2)CC(=O)N[C@H](Cc2ccccc2)C(=O)N[C@@H](Cc2ccccc2)C(=O)N[C@@H](CCC(N)=O)C(=O)N[C@@H](CC(N)=O)C(=O)N1)C(=O)NCC(N)=O [d(CH2)5 D-Phe^2 AVP, [1-(β-mercapto-β,β-cyclopentamethylenepropionic acid), 2-D-phenylalanine]-arginine vasopressin] ([dF]FQNCPRG-NH2; linker N-5 via X1)			7.21	
CC[C@@H](C)[C@H]1NC(=O)CC2(CCCCC2)SSC[C@@H](C(=O)N2CCC[C@H]2C(=O)N[C@@H](CCCNC(=N)N)C(=O)NCC(N)=O)NC(=O)[C@H](CC(N)=O)NC(=O)[C@H]([C@@H](C)O)NC(=O)[C@H](Cc2ccccc2)NC1=O [d(CH2)5 D-Ile^2 Thr^4 AVP, [1-(β-mercapto-β,β-cyclopentamethylenepropionic acid), 2-D-isoleucine, 4-threonine]-arginine vasopressin] ([dI]FTNCPRG-NH2; linker N-5 via X1)			7.91	
N=C(N)NCCC[C@H](NC(=O)[C@@H]1CCCN1C(=O)[C@@H]1CSSC2(CCCCC2)CC(=O)N[C@H](Cc2ccccc2)C(=O)N[C@@H](Cc2ccccc2)C(=O)N[C@@H](Cc2ccccc2)C(=O)N[C@@H](CC(N)=O)C(=O)N1)C(=O)NCC(N)=O [d(CH2)5 D-Phe^2 Phe^4 AVP, [1-(β-mercapto-β,β-cyclopentamethylenepropionic acid), 2-D-phenylalanine, 4-phenylalanine]-arginine vasopressin] ([dF]FFNCPRG-NH2; linker N-5 via X1)			6.07	
N=C(N)NCCC[C@H](NC(=O)[C@@H]1CCCN1C(=O)[C@@H]1CSSC2(CCCCC2)CC(=O)N[C@H](Cc2ccccc2)C(=O)N[C@@H](Cc2ccccc2)C(=O)N[C@@H](Cc2ccc(O)cc2)C(=O)N[C@@H](CC(N)=O)C(=O)N1)C(=O)NCC(N)=O [d(CH2)5 D-Phe^2 Tyr^4 AVP, [1-(β-mercapto-β,β-cyclopentamethylenepropionic acid), 2-D-phenylalanine, 4-tyrosine]-arginine vasopressin] ([dF]FYNCPRG-NH2; linker N-5 via X1)			~ 5.57	
COc1ccc(C[C@@H]2NC(=O)CC3(CCCCC3)SSC[C@@H](C(=O)N3CCC[C@H]3C(=O)N[C@@H](CCCNC(=N)N)C(=O)NCC(N)=O)NC(=O)[C@H](CC(N)=O)NC(=O)[C@H](CCC(N)=O)NC(=O)[C@H](Cc3ccccc3)NC2=O)cc1 [d(CH2)5 Tyr(Me)AVP, [1-(β-mercapto-β,β-cyclopentamethylenepropionic acid), 2-O-methyltyrosine]-arginine vasopressin, reference compound] (Y(Me)FQNCPRG-NH2; linker N-5 via X1)		8.62 ± 0.03		Antagonistic Activities Antivasopressor pA2 [2]: 8.62 ± 0.03
CC(C)C[C@@H]1NC(=O)[C@H](Cc2ccccc2)NC(=O)[C@@H](Cc2ccccc2)NC(=O)CC2(CCCCC2)SSC[C@@H](C(=O)N2CCC[C@H]2C(=O)N[C@@H](CCCNC(=N)N)C(=O)NCC(N)=O)NC(=O)[C@H](CC(N)=O)NC1=O [d(CH2)5 D-Phe^2 Leu^4 AVP, [1-(β-mercapto-β,β-cyclopentamethylenepropionic acid), 2-D-phenylalanine, 4-leucine]-arginine vasopressin] ([dF]FLNCPRG-NH2; linker N-5 via X1)			6.07	
CCOc1ccc(C[C@H]2NC(=O)CC3(CCCCC3)SSC[C@@H](C(=O)N3CCC[C@H]3C(=O)N[C@@H](CCCCN)C(=O)NCC(N)=O)NC(=O)[C@H](CC(N)=O)NC(=O)[C@H](C(C)C)NC(=O)[C@H](Cc3ccccc3)NC2=O)cc1 [d(CH2)5 D-Tyr(Et)^2 Val^4 Lys^8 VP] ([dY](Et)FVNCPKG-NH2; linker N-5 via X1)				Anti-Antidiuretic pA2 ([1]; rat, in vivo): 7.72
CC(C)[C@@H]1NC(=O)[C@H](Cc2ccccc2)NC(=O)[C@@H](Cc2ccc(O)cc2)NC(=O)CC2(CCCCC2)SSC[C@@H](C(=O)N2CCC[C@H]2C(=O)N[C@@H](CCCNC(=N)N)C(=O)NCC(N)=O)NC(=O)[C@H](CC(N)=O)NC1=O [d(CH2)5 --D-TyrVAVP, [1-(β-mercapto-β,β-cyclopentamethylenepropionic acid), 2-D-tyrosine, 4-valine]-arginine vasopressin] ([dY]FVNCPRG-NH2; linker N-5 via X1)	7.51 ± 0.08			
CCCC[C@@H]1NC(=O)[C@H](Cc2ccccc2)NC(=O)[C@@H](Cc2ccccc2)NC(=O)CC2(CCCCC2)SSC[C@@H](C(=O)N2CCC[C@H]2C(=O)N[C@@H](CCCNC(=N)N)C(=O)NCC(N)=O)NC(=O)[C@H](CC(N)=O)NC1=O [d(CH2)5 D-Phe^2 Nle^4 AVP, [1-(β-mercapto-β,β-cyclopentamethylenepropionic acid), 2-D-phenylalanine, 4-norleucine]-arginine vasopressin] ([dF]F[Nle]NCPRG-NH2; linker N-5 via X1)			7.12	
CC[C@@H](C)[C@H]1NC(=O)CC2(CCCCC2)SSC[C@@H](C(=O)N2CCC[C@H]2C(=O)N[C@@H](CCCNC(=N)N)C(=O)NCC(N)=O)NC(=O)[C@H](CC(N)=O)NC(=O)[C@H](C)NC(=O)[C@H](Cc2ccccc2)NC1=O [d(CH2)5 D-Ile^2 Ala^4 AVP, [1-(β-mercapto-β,β-cyclopentamethylenepropionic acid), 2-D-isoleucine, 4-alanine]-arginine vasopressin] ([dI]FANCPRG-NH2; linker N-5 via X1)			7.76	
